Experimental data: PubChem BioAssay AID1963969 (Molecular Pharmacology Branch, DTP, NCI, 2024)

System: 817829-284-R-J1-PDC multi-cell spheroid viability
Experiment: Anticancer human tumor 817829-284-R-J1-PDC patient-derived colon adenocarcinoma cell line growth inhibition [PI3K]
Settings: for IC50: curve of first compound; for viability, T/C: stronger effect = lower value
Method in brief: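 We assembled tumor spheroids that included a stromal compartment of HUVEC and MSCs, then exposed them to targeted agents alone and together with PI3K pathway inhibitors. Concentration series descended by half-log from clinically achievable Cmax levels. Viability served as the endpoint.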

[1] = second compound 0.0316 µM, first compound 0.0316 µM
[2] = second compound 0.0316 µM, first compound 0.1 µM
[3] = second compound 0.0316 µM, first compound 0.316 µM
[4] = second compound 0.0316 µM, first compound 1 µM
[5] = second compound 0.1 µM, first compound 0.0316 µM
[6] = second compound 0.1 µM, first compound 0.1 µM
[7] = second compound 0.1 µM, first compound 0.316 µM
[8] = second compound 0.1 µM, first compound 1 µM
[9] = second compound 0.316 µM, first compound 0.0316 µM
[10] = second compound 0.316 µM, first compound 0.1 µM
[11] = second compound 0.316 µM, first compound 0.316 µM
[12] = second compound 0.316 µM, first compound 1 µM
[13] = second compound 1 µM, first compound 0.0316 µM
[14] = second compound 1 µM, first compound 0.1 µM
[15] = second compound 1 µM, first compound 0.316 µM
[16] = second compound 1 µM, first compound 1 µM
[17] = second compound 3.16 µM, first compound 0.0316 µM
[18] = second compound 3.16 µM, first compound 0.1 µM
[19] = second compound 3.16 µM, first compound 0.316 µM
[20] = second compound 3.16 µM, first compound 1 µM
[21] = second compound 10 µM, first compound 0.0316 µM
[22] = second compound 10 µM, first compound 0.1 µM
[23] = second compound 10 µM, first compound 0.316 µM
[24] = second compound 10 µM, first compound 1 µM
[25] = second compound 0.0316 µM, first compound 0.00316 µM
[26] = second compound 0.0316 µM, first compound 0.01 µM
[27] = second compound 0.1 µM, first compound 0.00316 µM
[28] = second compound 0.1 µM, first compound 0.01 µM
[29] = second compound 0.316 µM, first compound 0.00316 µM
[30] = second compound 0.316 µM, first compound 0.01 µM
[31] = second compound 1 µM, first compound 0.00316 µM
[32] = second compound 1 µM, first compound 0.01 µM
[33] = second compound 3.16 µM, first compound 0.00316 µM
[34] = second compound 3.16 µM, first compound 0.01 µM
[35] = second compound 10 µM, first compound 0.00316 µM
[36] = second compound 10 µM, first compound 0.01 µM
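Note: spheroids exposed to agents for seven days before readout.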
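Throughout, for viability, T/C: percent of vehicle DMSO control viability which is 100%.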

What does the source list for CC(C)NCC(C(=O)N1CCN(c2ncnc3c2C(C)CC3O)CC1)c1ccc(Cl)cc1 (stereo unspecified) + Cc1nc(NC(=O)N2CCCC2C(N)=O)sc1-c1ccnc(C(C)(C)C(F)(F)F)c1?
IC50 (second compound 0.0316 µM): 249 nM; IC50 (second compound 0.1 µM): 193 nM; IC50 (second compound 0.316 µM): 203 nM; IC50 (second compound 1 µM): 165 nM; IC50 (second compound 3.16 µM): 69.2 nM; IC50 (second compound 10 µM): 38.8 nM; viability, T/C [1]: 80.1%; viability, T/C [2]: 62.1%; viability, T/C [3]: 51.1%; viability, T/C [4]: 21.8%; viability, T/C (second compound 0.0316 µM, first compound 3.16 µM): 19.6%; viability, T/C (second compound 0.0316 µM, first compound 10 µM): 13.5%; viability, T/C [5]: 82.5%; viability, T/C [6]: 72.9%; viability, T/C [7]: 32.4%; viability, T/C [8]: 21.5%; viability, T/C (second compound 0.1 µM, first compound 3.16 µM): 19.4%; viability, T/C (second compound 0.1 µM, first compound 10 µM): 13.1%; viability, T/C [9]: 55.5%; viability, T/C [10]: 107%; viability, T/C [11]: 30.5%; viability, T/C [12]: 24.4%; viability, T/C (second compound 0.316 µM, first compound 3.16 µM): 17.3%; viability, T/C (second compound 0.316 µM, first compound 10 µM): 11%; viability, T/C [13]: 69.3%; viability, T/C [14]: 66.3%; viability, T/C [15]: 29.6%; viability, T/C [16]: 23%; viability, T/C (second compound 1 µM, first compound 3.16 µM): 16.6%; viability, T/C (second compound 1 µM, first compound 10 µM): 8.39%; viability, T/C [17]: 69.3%; viability, T/C [18]: 40.2%; viability, T/C [19]: 23.9%; viability, T/C [20]: 19.2%; viability, T/C (second compound 3.16 µM, first compound 3.16 µM): 15.3%; viability, T/C (second compound 3.16 µM, first compound 10 µM): 6.49%; viability, T/C [21]: 52.8%; viability, T/C [22]: 39.5%; viability, T/C [23]: 29%; viability, T/C [24]: 24.6%; viability, T/C (second compound 10 µM, first compound 3.16 µM): 12.5%; viability, T/C (second compound 10 µM, first compound 10 µM): 6.18%

What does the source list for CCN1CCN(Cc2ccc(Nc3ncc(F)c(-c4cc(F)c5nc(C)n(C(C)C)c5c4)n3)nc2)CC1 + Cc1nc(NC(=O)N2CCCC2C(N)=O)sc1-c1ccnc(C(C)(C)C(F)(F)F)c1?
IC50 (second compound 0.0316 µM): 638 nM; IC50 (second compound 0.1 µM): 316 nM; IC50 (second compound 0.316 µM): 325 nM; IC50 (second compound 1 µM): 122 nM; IC50 (second compound 3.16 µM): 56.9 nM; IC50 (second compound 10 µM): 6.96 nM; viability, T/C [25]: 75.4%; viability, T/C [26]: 55.4%; viability, T/C [1]: 90.8%; viability, T/C [2]: 52.5%; viability, T/C [3]: 66.5%; viability, T/C [4]: 42.1%; viability, T/C [27]: 91.5%; viability, T/C [28]: 70.8%; viability, T/C [5]: 112%; viability, T/C [6]: 46.7%; viability, T/C [7]: 64.4%; viability, T/C [8]: 59.1%; viability, T/C [29]: 76.4%; viability, T/C [30]: 53.1%; viability, T/C [9]: 74.9%; viability, T/C [10]: 49.9%; viability, T/C [11]: 48.2%; viability, T/C [12]: 47.1%; viability, T/C [31]: 76%; viability, T/C [32]: 63.5%; viability, T/C [13]: 56.5%; viability, T/C [14]: 47.8%; viability, T/C [15]: 51.5%; viability, T/C [16]: 43.7%; viability, T/C [33]: 53.1%; viability, T/C [34]: 63.5%; viability, T/C [17]: 61%; viability, T/C [18]: 39.4%; viability, T/C [19]: 41.6%; viability, T/C [20]: 42.6%; viability, T/C [35]: 66.1%; viability, T/C [36]: 35.1%; viability, T/C [21]: 51.9%; viability, T/C [22]: 38.4%; viability, T/C [23]: 46.7%; viability, T/C [24]: 41%

What does the source list for Cn1ncnc1[C@H]1c2n[nH]c(=O)c3cc(F)cc(c23)N[C@@H]1c1ccc(F)cc1 + Cc1nc(NC(=O)N2CCCC2C(N)=O)sc1-c1ccnc(C(C)(C)C(F)(F)F)c1?
IC50 (second compound 0.0316 µM): 25.1 nM; IC50 (second compound 0.1 µM): 62.7 nM; IC50 (second compound 0.316 µM): 7.2 nM; IC50 (second compound 1 µM): 41.2 nM; IC50 (second compound 3.16 µM): 16.3 nM; IC50 (second compound 10 µM): 11.9 nM; viability, T/C (second compound 0.0316 µM, first compound 0.000316 µM): 60.7%; viability, T/C (second compound 0.0316 µM, first compound 0.001 µM): 77%; viability, T/C [25]: 72.5%; viability, T/C [26]: 55.1%; viability, T/C [1]: 49.4%; viability, T/C [2]: 48%; viability, T/C (second compound 0.1 µM, first compound 0.000316 µM): 78.6%; viability, T/C (second compound 0.1 µM, first compound 0.001 µM): 72.2%; viability, T/C [27]: 69.1%; viability, T/C [28]: 59.6%; viability, T/C [5]: 53.9%; viability, T/C [6]: 47.5%; viability, T/C (second compound 0.316 µM, first compound 0.000316 µM): 84.8%; viability, T/C (second compound 0.316 µM, first compound 0.001 µM): 87.2%; viability, T/C [29]: 55.5%; viability, T/C [30]: 55.8%; viability, T/C [9]: 37.2%; viability, T/C [10]: 50.2%; viability, T/C (second compound 1 µM, first compound 0.000316 µM): 59%; viability, T/C (second compound 1 µM, first compound 0.001 µM): 52.1%; viability, T/C [31]: 54.5%; viability, T/C [32]: 43.3%; viability, T/C [13]: 70.2%; viability, T/C [14]: 30.8%; viability, T/C (second compound 3.16 µM, first compound 0.000316 µM): 48.5%; viability, T/C (second compound 3.16 µM, first compound 0.001 µM): 72.7%; viability, T/C [33]: 60.7%; viability, T/C [34]: 62.6%; viability, T/C [17]: 33.1%; viability, T/C [18]: 36.8%; viability, T/C (second compound 10 µM, first compound 0.000316 µM): 49.9%; viability, T/C (second compound 10 µM, first compound 0.001 µM): 54.9%; viability, T/C [35]: 60.7%; viability, T/C [36]: 40.6%; viability, T/C [21]: 50.8%; viability, T/C [22]: 38.2%
